Results reported in ChEMBL document CHEMBL1201861, “Genomics of Drug Sensitity in Cancer screening data, Wellcome Trust Sanger Institute”.

Legend:
TCC-SUP = assay: cells; assay type: functional, cell-based; conditions: Homo sapiens;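 further: growth inhibition of TCC-SUP cells, read out with a cell viability assay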
Description: SANGER: Inhibition of human TCCSUP cell growth in a cell viability assay.

Hs-578T = assay: cells; assay type: functional, cell-based; conditions: Homo sapiens
Description: SANGER: Inhibition of human Hs-578-T cell growth in a cell viability assay.

SW1463 = assay: cells; assay type: functional, cell-based; conditions: Homo sapiens;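 further: growth inhibition of SW1463 cells, determined with a cell viability assay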
Description: SANGER: Inhibition of human SW1463 cell growth in a cell viability assay.

A 172 = assay: cells; assay type: functional, cell-based; conditions: Homo sapiens;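 further: growth inhibition of A172 cells, measured with a cell viability readout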
Description: SANGER: Inhibition of human A172 cell growth in a cell viability assay.

CAL-12T = assay: cells; assay type: functional, cell-based; conditions: Homo sapiens;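 further: growth inhibition of human CAL-12T cells, read out with a cell viability assay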
Description: SANGER: Inhibition of human CAL-12T cell growth in a cell viability assay.

HCT-116 = assay: cells; assay type: functional, cell-based; conditions: Homo sapiens
Description: SANGER: Inhibition of human HCT-116 cell growth in a cell viability assay.

NCI-H2141 = assay: cells; assay type: functional, cell-based, Homo sapiens; conditions: Homo sapiens, NCI-H2141;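 further: growth inhibition of human NCI-H2141 cells, read out with a cell viability assay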
Description: SANGER: Inhibition of human NCI-H2141 cell growth in a cell viability assay.

VMRC-RCZ = assay: cells; assay type: functional, cell-based; conditions: Homo sapiens
Description: SANGER: Inhibition of human VMRC-RCZ cell growth in a cell viability assay.

EB2 = assay: cells; assay type: functional, cell-based, Homo sapiens; conditions: Homo sapiens, EB2;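 further: growth inhibition of EB2 cells, read out with a cell viability assay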
Description: SANGER: Inhibition of human EB2 cell growth in a cell viability assay.

RPMI-2650 = assay: cells; assay type: functional, cell-based; conditions: Homo sapiens
Description: SANGER: Inhibition of human RPMI-2650 cell growth in a cell viability assay.

DBTRG-05MG = assay: cells; assay type: functional, cell-based; conditions: Homo sapiens;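 further: cell viability assay measuring growth inhibition of human DBTRG-05MG cells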
Description: SANGER: Inhibition of human DBTRG-05MG cell growth in a cell viability assay.

HT-1080 = assay: cells; assay type: functional, cell-based; conditions: Homo sapiens
Description: SANGER: Inhibition of human HT-1080 cell growth in a cell viability assay.

A2780 = assay: cells; assay type: functional, cell-based; conditions: Homo sapiens;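 further: growth inhibition of A2780 cells, read out with a cell viability assay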
Description: SANGER: Inhibition of human A2780 cell growth in a cell viability assay.

CaR-1 = assay: cells; assay type: functional, cell-based; conditions: Homo sapiens;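 further: growth inhibition of human CaR-1 cancer cells, read out with a cell viability assay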
Description: SANGER: Inhibition of human CaR-1 cell growth in a cell viability assay.

LC4-1 = assay: cells; assay type: functional, cell-based, Homo sapiens; conditions: Homo sapiens, LC4-1;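 further: growth inhibition of LC4-1 cells, read out with a cell viability assay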
Description: SANGER: Inhibition of human LC4-1 cell growth in a cell viability assay.

HT55 = assay: cells; assay type: functional, cell-based; conditions: Homo sapiens;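 further: cell viability readout measuring growth inhibition of human HT55 cells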
Description: SANGER: Inhibition of human HT55 cell growth in a cell viability assay.

MC-CAR = assay: cells; assay type: functional, cell-based, Homo sapiens; conditions: Homo sapiens, MC-CAR;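 further: growth inhibition of the human MC-CAR cell line, read out by a cell viability assay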
Description: SANGER: Inhibition of human MC-CAR cell growth in a cell viability assay.

NCI-H1417 = assay: cells; assay type: functional, cell-based, Homo sapiens; conditions: Homo sapiens, NCI-H1417;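 further: human NCI-H1417 cells, growth inhibition determined with a cell viability readout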
Description: SANGER: Inhibition of human NCI-H1417 cell growth in a cell viability assay.

TUR = assay: cells; assay type: functional, cell-based, Homo sapiens; conditions: Homo sapiens, TUR;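 further: growth inhibition of human TUR cells, read out with a cell viability assay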
Description: SANGER: Inhibition of human TUR cell growth in a cell viability assay.

H4 = assay: cells; assay type: functional, cell-based; conditions: Homo sapiens
Description: SANGER: Inhibition of human H4 cell growth in a cell viability assay.

TE-15 = assay: cells; assay type: functional, cell-based, Homo sapiens; conditions: Homo sapiens, TE-15;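 further: cell viability readout of growth inhibition in TE-15 cells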
Description: SANGER: Inhibition of human TE-15 cell growth in a cell viability assay.

SW948 = assay: cells; assay type: functional, cell-based; conditions: Homo sapiens;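 further: growth inhibition of SW948 cells, read out with a cell viability assay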
Description: SANGER: Inhibition of human SW948 cell growth in a cell viability assay.

OVCAR-3 = assay: cells; assay type: functional, cell-based; conditions: Homo sapiens;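 further: growth inhibition of human OVCAR-3 cells, determined by a cell viability assay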
Description: SANGER: Inhibition of human OVCAR-3 cell growth in a cell viability assay.

CAL-39 = assay: cells; assay type: functional, cell-based; conditions: Homo sapiens;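 further: cell viability assay measuring growth inhibition of CAL-39 cells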
Description: SANGER: Inhibition of human CAL-39 cell growth in a cell viability assay.

CWR22R = assay: cells; assay type: functional, cell-based; conditions: Homo sapiens, 22Rv1;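 further: growth inhibition of 22Rv1 cells, read out with a cell viability assay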
Description: SANGER: Inhibition of human 22RV1 cell growth in a cell viability assay.

SNU-423 = assay: cells; assay type: functional, cell-based; conditions: Homo sapiens
Description: SANGER: Inhibition of human SNU-423 cell growth in a cell viability assay.

LCLC-97TM1 = assay: cells; assay type: functional, cell-based; conditions: Homo sapiens;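 further: cell viability assay measuring growth inhibition of human LCLC-97TM1 cells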
Description: SANGER: Inhibition of human LCLC-97TM1 cell growth in a cell viability assay.

UMUC3 = assay: cells; assay type: functional, cell-based; conditions: Homo sapiens;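 further: growth inhibition of human UM-UC-3 cells, read out with a cell viability assay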
Description: SANGER: Inhibition of human UM-UC-3 cell growth in a cell viability assay.

COR-L23 = assay: cells; assay type: functional, cell-based; conditions: Homo sapiens;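 further: cell viability assay measuring how strongly compounds suppress growth of COR-L23 cells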
Description: SANGER: Inhibition of human COR-L23 cell growth in a cell viability assay.

LU-99A = assay: cells; assay type: functional, cell-based; conditions: Homo sapiens;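 further: growth inhibition of LU-99A cells, read out with a cell viability assay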
Description: SANGER: Inhibition of human LU-99A cell growth in a cell viability assay.

LB373-MEL-D = assay: cells; assay type: functional, cell-based, Homo sapiens; conditions: Homo sapiens, LB373-MEL-D;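 further: growth inhibition of the cell line, read out in a cell viability assay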
Description: SANGER: Inhibition of human LB373-MEL-D cell growth in a cell viability assay.

A2058 = assay: cells; assay type: functional, cell-based; conditions: Homo sapiens;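 further: reduction of A2058 cell growth, read out with a viability assay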
Description: SANGER: Inhibition of human A2058 cell growth in a cell viability assay.

NCI-H358 = assay: cells; assay type: functional, cell-based; conditions: Homo sapiens;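 further: growth inhibition of NCI-H358 human cells, read out with a cell viability assay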
Description: SANGER: Inhibition of human NCI-H358 cell growth in a cell viability assay.

SW13 = assay: cells; assay type: functional, cell-based; conditions: Homo sapiens;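 further: IC50 is inhibition of SW13 cell growth, read out with a cell viability assay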
Description: SANGER: Inhibition of human SW13 cell growth in a cell viability assay.

SW837 = assay: cells; assay type: functional, cell-based; conditions: Homo sapiens;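 further: growth inhibition of SW837 cells, determined with a cell viability assay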
Description: SANGER: Inhibition of human SW837 cell growth in a cell viability assay.

BL-41 = assay: cells; assay type: functional, cell-based; conditions: Homo sapiens;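 further: growth inhibition of human BL-41 cells, read out with a cell viability assay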
Description: SANGER: Inhibition of human BL-41 cell growth in a cell viability assay.

CAL-72 = assay: cells; assay type: functional, cell-based; conditions: Homo sapiens;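 further: cell viability assay measuring inhibition of proliferation in the CAL-72 cell line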
Description: SANGER: Inhibition of human CAL-72 cell growth in a cell viability assay.

23132-87 = assay: cells; assay type: functional, cell-based; conditions: Homo sapiens
Description: SANGER: Inhibition of human 23132-87 cell growth in a cell viability assay.

NCI-H292 = assay: cells; assay type: functional, cell-based; conditions: Homo sapiens;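 further: growth inhibition of NCI-H292 cells, read out with a cell viability assay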
Description: SANGER: Inhibition of human NCI-H292 cell growth in a cell viability assay.

NCI-H441 = assay: cells; assay type: functional, cell-based; conditions: Homo sapiens;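 further: growth inhibition of NCI-H441 cells, read out with a cell viability assay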
Description: SANGER: Inhibition of human NCI-H441 cell growth in a cell viability assay.

CAL-54 = assay: cells; assay type: functional, cell-based; conditions: Homo sapiens;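 further: growth inhibition of CAL-54 cells, read out by a viability measurement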
Description: SANGER: Inhibition of human CAL-54 cell growth in a cell viability assay.

SW780 = assay: cells; assay type: functional, cell-based; conditions: Homo sapiens;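 further: growth inhibition of the cells, read out with a cell viability assay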
Description: SANGER: Inhibition of human SW780 cell growth in a cell viability assay.

ST486 = assay: SANGER: Inhibition of human ST486 cell growth in a cell viability assay.; assay type: functional, cell-based; conditions: Homo sapiens, ST486
BL-70 = assay: SANGER: Inhibition of human BL-70 cell growth in a cell viability assay.; assay type: functional, cell-based; conditions: Homo sapiens, BL-70
DG-75 = assay: cells; assay type: functional, cell-based, Homo sapiens; conditions: Homo sapiens, DG-75;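 further: growth inhibition of DG-75 cells, read out with a cell viability assay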
Description: SANGER: Inhibition of human DG-75 cell growth in a cell viability assay.

DMS-79 = assay: cells; assay type: functional, cell-based, Homo sapiens; conditions: Homo sapiens, DMS-79
Description: SANGER: Inhibition of human DMS-79 cell growth in a cell viability assay.

769-P = assay: cells; assay type: functional, cell-based; conditions: Homo sapiens
Description: SANGER: Inhibition of human 769-P cell growth in a cell viability assay.

SK-MES-1 = assay: cells; assay type: functional, cell-based; conditions: Homo sapiens;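 further: growth inhibition of human SK-MES-1 cells, read out with a cell viability assay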
Description: SANGER: Inhibition of human SK-MES-1 cell growth in a cell viability assay.

SKG-IIIa = assay: cells; assay type: functional, cell-based; conditions: Homo sapiens;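 further: cell growth inhibition, read out with a cell viability assay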
Description: SANGER: Inhibition of human SKG-IIIa cell growth in a cell viability assay.

HT-3 = assay: cells; assay type: functional, cell-based; conditions: Homo sapiens;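 further: growth inhibition measured with a cell viability readout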
Description: SANGER: Inhibition of human HT-3 cell growth in a cell viability assay.

NCI-H2347 = assay: cells; assay type: functional, cell-based; conditions: Homo sapiens;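 further: growth inhibition of the cell line, read out with a cell viability assay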
Description: SANGER: Inhibition of human NCI-H2347 cell growth in a cell viability assay.

NCI-H2228 = assay: cells; assay type: functional, cell-based; conditions: Homo sapiens;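 further: growth inhibition of human NCI-H2228 cells, read out by a cell viability assay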
Description: SANGER: Inhibition of human NCI-H2228 cell growth in a cell viability assay.

OAW-28 = assay: cells; assay type: functional, cell-based; conditions: Homo sapiens;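 further: growth inhibition of OAW-28 cells, read out with a cell viability assay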
Description: SANGER: Inhibition of human OAW-28 cell growth in a cell viability assay.

NCI-H1522 = assay: cells; assay type: functional, cell-based, Homo sapiens; conditions: Homo sapiens, NCI-H1522;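 further: growth inhibition of NCI-H1522 cells, read out with a cell viability assay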
Description: SANGER: Inhibition of human NCI-H1522 cell growth in a cell viability assay.

MCF7 = assay: cells; assay type: functional, cell-based; conditions: Homo sapiens;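 further: growth inhibition of human MCF7 cells, read out with a cell viability assay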
Description: SANGER: Inhibition of human MCF7 cell growth in a cell viability assay.

Ca-Ski = assay: cells; assay type: functional, cell-based; conditions: Homo sapiens;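 further: cell viability assay measuring inhibition of Ca-Ski cell growth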
Description: SANGER: Inhibition of human Ca-Ski cell growth in a cell viability assay.

PF-382 = assay: cells; assay type: functional, cell-based, Homo sapiens; conditions: Homo sapiens, PF-382
Description: SANGER: Inhibition of human PF-382 cell growth in a cell viability assay.

LOUCY = assay: cells; assay type: functional, cell-based, Homo sapiens; conditions: Homo sapiens, LOUCY;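 further: growth inhibition of human LOUCY cells, read out with a cell viability assay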
Description: SANGER: Inhibition of human LOUCY cell growth in a cell viability assay.

MIA PaCa-2 = assay: cells; assay type: functional, cell-based; conditions: Homo sapiens;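 further: growth inhibition of MIA PaCa-2 cells, read out with a cell viability assay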
Description: SANGER: Inhibition of human MIA-PaCa-2 cell growth in a cell viability assay.

RT-112 = assay: cells; assay type: functional, cell-based; conditions: Homo sapiens
Description: SANGER: Inhibition of human RT-112 cell growth in a cell viability assay.

Measured: IC50

COC(=O)[C@H](CCSC)NC(=O)c1ccc(NC[C@@H](N)CS)cc1-c1ccccc1
> 1.02 µM: all assays above

OC[C@H](Cc1ccccc1)Nc1nc(Oc2ccc3c(c2)CCC3)nc2c1ncn2Cc1ccc(-c2ccccc2)cc1
3.64 µM: 769-P
6.16 µM: A 172
5.13 µM: HT-1080
3.69 µM: BL-41
6.07 µM: 23132-87
2.26 µM: MCF7
8.88 µM: MIA PaCa-2
1.86 µM: H4
2.48 µM: CAL-12T
4.13 µM: BL-70
6.43 µM: LCLC-97TM1
6.89 µM: COR-L23
8.44 µM: SK-MES-1
> 10.2 µM: all other assays above
